What all share (assay): NCI tumour cell line growth inhibition, 48 h
Test [1] relates to SK-MEL-5.
Test [2] deals with KM12.
Test [3] concerns SW-620.
In test [4] the test system is A498.
The subject of test [5] is OVCAR-3.
The subject of test [6] is ACHN.
Test [7] concerns RPMI-8226.
Test [8] deals with OVCAR-8.
The test system of test [9] is SK-OV-3.
Test [10] deals with NCI-H226.
Test [11] relates to SF-295.
Test [12] has as its system HCC 2998.
In test [13] the test system is RXF 393.
The subject of test [14] is SK-MEL-28.
In test [15] the test system is 786-0.
In test [16] the test system is HOP-62.
The subject of test [17] is HCT-116.
Test [18] concerns M14.
Test [19] has as its system Malme-3M.

Results on seven compounds are retold here after ChEMBL document CHEMBL1201862, “PubChem BioAssay data set” (2004).

SMILES strings stand for the structures.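 Protocol summary: plate cells (96-well), add compound at 5 concentrations, incubate 48 h, interpolate endpoints linearly. GI50 is the concentration that inhibits growth by half.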 The source made the active and inactive calls. Rule as the data show it: active = GI50 up to about 1.1 µM and inactive = higher.

`Cc1nc(N)sc1C(=O)/C=C\c1ccc2c(c1)OCO2`: the GI50 in [1], in test [2], in test [3], in test [4], in test [5] and in [6] was > 100 µM (inactive) throughout. In addition, the GI50 in test [7], in test [8], in [9], in test [10], in [11] and in [12] was > 100 µM (inactive) throughout. Besides, the GI50 in test [13], in test [14], in [15], in test [16], in [17] and in test [18] was > 100 µM (inactive) each time. Also, the GI50 in test [19] is > 100 µM (inactive).

Consider `CC(=O)c1ccc2c(c1)CC1(C2)Cc2cc3c(cc2C1)C(=O)CC3` (stereo not drawn), for which the GI50 is 0.608 µM (active) in [1]; 0.624 µM (active) in [2]; 0.681 µM (active) in test [3]; 0.401 µM (active) in [4]; 0.493 µM (active) in test [5]; 3.07 µM (inactive) in test [6]. Also, the GI50 in test [7] was 0.345 µM (active); in test [8] it was 3.49 µM (inactive); in [9], 0.723 µM (active); in [10] it was 0.31 µM (active); in test [11], 0.594 µM (active); in test [12] it was 0.91 µM (active). The GI50 in test [13] was 2.28 µM (inactive); in test [14], 3.55 µM (inactive); in test [15] it was 3.64 µM (inactive); in test [16] it was 2.67 µM (inactive); in test [17] it was 2.1 µM (inactive); in test [18], 2 µM (inactive). Further, the GI50 in test [19] was 1.35 µM (inactive).

With `CC(C)(c1ccccc1)c1ccc(OC#N)cc1`, the GI50 is 48.8 µM (inactive) in [1]; > 75 µM (inactive) in [2]; 99.3 µM (inactive) in test [3]; > 100 µM (inactive) in [4]; > 100 µM (inactive) in test [5]; 68.4 µM (inactive) in [6]. In addition, the GI50 in [7] is 34.1 µM (inactive); in [8], > 100 µM (inactive); in test [9], 98.6 µM (inactive); in test [10] it was 51.5 µM (inactive); in [11], 60.8 µM (inactive); in test [12], > 77.6 µM (inactive). Moreover, the GI50 is 46.1 µM (inactive) in [13]; > 70.5 µM (inactive) in test [14]; > 58.1 µM (inactive) in test [15]; > 100 µM (inactive) in test [16]; 34.4 µM (inactive) in [17]; > 100 µM (inactive) in test [18]. The GI50 in test [19] was > 100 µM (inactive).

On to `COc1cc2c[n+](C)c3c4cc(OC)c(OC)cc4c(OCCCCCCCCOc4cc5c6cc(OC)c(OC)cc6c[n+](C)c5c5cc(OC)c(OC)cc45)cc3c2cc1OC`, for which the GI50 in test [1] was 47.8 µM (inactive); in [2], 72.8 µM (inactive); in test [3] it was > 100 µM (inactive); in test [4] it was > 100 µM (inactive); in test [5], > 100 µM (inactive); in test [6] it was > 100 µM (inactive). Besides, the GI50 in [7] is 22.3 µM (inactive); in test [8] it was > 100 µM (inactive); in test [9], > 100 µM (inactive); in test [10] it was > 100 µM (inactive); in [11], > 100 µM (inactive); in test [12], > 100 µM (inactive). In addition, the GI50 in test [13] was > 100 µM (inactive); in [14] it was > 100 µM (inactive); in [15] it was 30.6 µM (inactive); in test [16], > 100 µM (inactive); in test [17] it was > 100 µM (inactive); in [18], > 100 µM (inactive). Further, in test [19], the GI50 was > 100 µM (inactive).

With `NC(=O)CC(N/C=C1/N=C(c2ccccc2)OC1=O)C(=O)O` (stereo not drawn), the GI50 in [1], in [2], in [3], in test [4], in test [5] and in test [6] was > 100 µM (inactive) throughout. For the same compound, the GI50 in [7], in test [8], in test [9], in test [10], in test [11] and in test [12] was > 100 µM (inactive) throughout. Besides, the GI50 in [13], in test [14], in test [15], in test [16], in [17] and in test [18] was > 100 µM (inactive) throughout. For the same compound, the GI50 in test [19] is > 100 µM (inactive).

For the compound `Cc1cc(C)c(C2[C@H]3C(=O)N(c4ccc(Cc5ccc(N6C(=O)[C@@H]7ON(c8ccccc8)C(c8c(C)cc(C)cc8C)[C@@H]7C6=O)cc5)cc4)C(=O)[C@H]3ON2c2ccccc2)c(C)c1` (stereo partly drawn), the GI50 in [1], in test [2], in test [3], in test [4], in test [5] and in test [6] was > 100 µM (inactive) each time. Further, the GI50 in [7], in test [8], in test [9], in test [10], in test [11] and in test [12] was > 100 µM (inactive) each time. The GI50 in [13] is 44.1 µM (inactive); in [14], > 100 µM (inactive); in test [15], > 100 µM (inactive); in test [16], > 100 µM (inactive); in [17], > 100 µM (inactive); in test [18], > 100 µM (inactive). In test [19], the GI50 was > 100 µM (inactive).

In the case of `O=C1CCCN(c2ccccc2)N1`, the GI50 in test [1], in test [2], in test [3], in test [4], in test [5] and in test [6] was > 100 µM (inactive) in each case. The GI50 in test [7], in test [8], in test [9], in test [10], in [11] and in [12] was > 100 µM (inactive) in each case. Moreover, the GI50 in test [13], in [14], in test [15], in test [16], in test [17] and in test [18] was > 100 µM (inactive) each time. Besides, the GI50 in test [19] was > 100 µM (inactive).
